{"source": "paper PMC6525071", "about": "(Cell chemical biology, 2019)", "key": {"cells": {"tested_on": "cells", "test": "Cell survival test of free fatty acids in the presence or absence of IKE", "type": "cell-based", "conditions": "for effect of free fatty acid on ferroptosis: 10 μM, in the presence of IKE; for toxicity of free fatty acid to cells: high concentration (100 μM)"}, "DLBCL cell lines": {"tested_on": "DLBCL cell lines", "test": "Rescue of IKE-induced cell death by co-treatment with ferroptosis inhibitors", "type": "cell-based"}, "SUDHL6 cells [1]": {"tested_on": "SUDHL6 cells", "test": "Untargeted lipidomics", "type": "cell-based", "conditions": "for effect of co-treatment on IKE-induced lipidomic changes: 10 μM co-treatment with 500 nM IKE"}, "[2]": {"conditions": "ref Larraufie et al., 2015; cited from earlier work"}, "SUDHL-6 cells [3]": {"tested_on": "SUDHL-6 cells", "test": "Reduced glutathione measurement in cells", "type": "cell-based"}, "SUDHL-6 cells [4]": {"tested_on": "SUDHL-6 cells", "test": "RT-qPCR gene expression in cells", "type": "cell-based", "conditions": "for effect of co-treatment on IKE-induced upregulation of lipid metabolism genes: 10 μM co-treatment with 500 nM IKE"}, "SUDHL-6 cells [5]": {"tested_on": "SUDHL-6 cells", "test": "Lipid ROS by flow cytometry with C11-BODIPY", "type": "cell-based"}, "SUDHL6 cells [6]": {"tested_on": "SUDHL6 cells", "test": "IKE PEG-PLGA cellular activity, CellTiter-Glo viability"}, "LY8": {"tested_on": "LY8", "test": "DLBCL cell line sensitivity to IKE, Cell Titer-Glo viability", "type": "cell-based", "conditions": "read-out: cell line sensitivity class (IC50), LY8, IKE 24 hours"}, "HBL1": {"tested_on": "HBL1", "test": "DLBCL cell line sensitivity to IKE, Cell Titer-Glo viability", "type": "cell-based", "conditions": "read-out: cell line sensitivity class (IC50), HBL1, IKE 24 hours"}, "RIVA": {"tested_on": "RIVA", "test": "DLBCL cell line sensitivity to IKE, Cell Titer-Glo viability", "type": "cell-based", "conditions": "read-out: cell line sensitivity class (IC50), IKE 24 hours"}, "U937": {"tested_on": "U937", "test": "DLBCL cell line sensitivity to IKE, Cell Titer-Glo viability", "type": "cell-based", "conditions": "read-out: cell line sensitivity class (IC50), U937, IKE 24 hours"}, "LY7": {"tested_on": "LY7", "test": "DLBCL cell line sensitivity to IKE, Cell Titer-Glo viability", "type": "cell-based", "conditions": "read-out: cell line sensitivity class (IC50), LY7, IKE 24 hours"}, "SUDHL-6 cells [7]": {"tested_on": "SUDHL-6 cells", "test": "Immunofluorescence of dihydropyridine-MDA-lysine adduct in cells", "type": "cell-based", "conditions": "IKE treatment"}, "[8]": {"test": "Pharmacokinetic analysis in mice with three administration routes", "type": "in vivo, mouse", "conditions": "single dose IP, IV, PO, NOD/SCID mice, 5% DMSO in HBSS at pH 4"}, "[9]": {"test": "Pharmacokinetic analysis in NCG mice bearing SUDHL6 xenografts", "type": "in vivo, mouse"}, "[10]": {"tested_on": "SUDHL6 xenograft tumor tissue", "test": "GSH in tumor tissue after a single IKE dose", "type": "in vivo, mouse", "conditions": "single dose 50 mg/kg IKE IP, starting at 4 hours"}, "[11]": {"tested_on": "SUDHL6 xenograft tumor tissue", "test": "RT-qPCR in tumor tissue after a single IKE dose", "type": "in vivo, mouse", "conditions": "single dose 50 mg/kg IKE, starting at 3 h"}, "[12]": {"test": "Mouse weight during efficacy study", "type": "in vivo", "conditions": "starting from day 9"}, "[13]": {"tested_on": "SUDHL6 xenograft tumor tissue", "test": "Immunofluorescence on frozen tumor sections from efficacy study", "type": "in vivo, mouse"}, "[14]": {"tested_on": "SUDHL6 xenograft tumor tissue", "test": "TBARS assay on tumor tissue from efficacy study", "type": "in vivo, mouse"}, "caspase-3": {"tested_on": "caspase-3", "test": "Caspase-3 western blot on tumor tissue", "type": "in vivo, mouse", "conditions": "upon IKE treatment, efficacy study"}, "cell lines": {"tested_on": "cell lines", "conditions": "ref Larraufie et al., 2015, cited from earlier work"}, "GSH": {"tested_on": "GSH", "conditions": "ref Narang et al., 2007; Lo et al., 2010; cited from earlier work"}, "[15]": {"conditions": "10 μM fer-1 with 500 nM IKE, 6 hours, SUDHL6 cells"}, "[16]": {"conditions": "10 μM fer-1 co-treatment with 500 nM IKE"}, "[17]": {"conditions": "IP injection, SUDHL6 NCG xenograft mice"}, "[18]": {"conditions": "single dose 50 mg/kg IP, SUDHL6-xenograft-bearing NCG mice"}}, "data": [{"smiles": "CCCCCCCC/C=C\\CCCCCCCC(=O)O", "note": "[oleic acid]", "values": [{"measurement": "effect of free fatty acid on ferroptosis", "setting": "cells", "result": "protected against ferroptosis"}]}, {"smiles": "CCCCC/C=C\\C/C=C\\C/C=C\\CCCCC(=O)O", "note": "[γ-linolenic acid]", "values": [{"measurement": "toxicity of free fatty acid to cells", "setting": "cells", "result": "toxic to cells"}]}, {"smiles": "CC(=O)N(O)CCCCCNC(=O)CCC(=O)N(O)CCCCCNC(=O)CCC(=O)N(O)CCCCCN", "note": "[DFO, deferoxamine]", "values": [{"measurement": "effect of DFO co-treatment on IKE-induced cell death", "setting": "DLBCL cell lines; in culture", "result": "inhibited IKE-induced cell death"}, {"measurement": "effect of co-treatment on IKE-induced lipidomic changes", "setting": "SUDHL6 cells [1]", "result": "only partially eliminated lipidomic changes"}]}, {"smiles": "CC/C=C\\C/C=C\\C/C=C\\C/C=C\\C/C=C\\CCCC(=O)O", "note": "[eicosapentaenoic acid]", "values": [{"measurement": "toxicity of free fatty acid to cells", "setting": "cells", "result": "toxic to cells"}]}, {"smiles": "CCCCCC/C=C\\CCCCCCCC(=O)O", "note": "[palmitoleic acid]", "values": [{"measurement": "effect of free fatty acid on ferroptosis", "setting": "cells", "result": "protected against ferroptosis"}]}, {"smiles": "CCCCC/C=C\\C/C=C\\C/C=C\\C/C=C\\CCCC(=O)O", "note": "[arachidonic acid]", "values": [{"measurement": "toxicity of free fatty acid to cells", "setting": "cells", "result": "toxic to cells"}]}, {"smiles": "CCOc1ccccc1-n1c(C(C)N2CCN(C(=O)COc3ccc(Cl)cc3)CC2)nc2ccccc2c1=O", "note": "(stereo not drawn) [erastin, reference compound]", "values": [{"measurement": "metabolic stability", "setting": "[2]", "result": "metabolically labile"}]}, {"smiles": "OCCS", "note": "[β-ME, β-mercaptoethanol]", "values": [{"measurement": "effect of co-treatment on IKE-induced GSH depletion", "setting": "SUDHL-6 cells [3]; 10 μM β-ME co-treatment, SUDHL6 cells, 24 hours", "result": "reversed"}, {"measurement": "effect of co-treatment on IKE-induced upregulation of lipid metabolism genes", "setting": "SUDHL-6 cells [4]; SUDHL6 cells", "result": "partially reversed"}, {"measurement": "effect of co-treatment on IKE-induced upregulation of SLC7A11, PTGS2 and CHAC1", "setting": "SUDHL-6 cells [4]; 10 μM β-ME with 500 nM IKE, 6 hours, SUDHL6 cells", "result": "prevented"}, {"measurement": "effect of co-treatment on IKE-induced lipidomic changes", "setting": "SUDHL6 cells [1]", "result": "reversed these effects"}]}, {"smiles": "CCOC(=O)c1ccc(NC2CCCCC2)c(N)c1", "note": "[fer-1, ferrostatin-1]", "values": [{"measurement": "effect of fer-1 co-treatment on cell death induced by IKE", "setting": "DLBCL cell lines; DLBCL cell lines", "result": "rescued cell death"}, {"measurement": "effect of co-treatment on IKE-induced lipid ROS signal", "setting": "SUDHL-6 cells [5]; 10 μM fer-1 co-treatment", "result": "inhibited this signal"}, {"measurement": "effect of co-treatment on IKE-induced upregulation of lipid metabolism genes", "setting": "SUDHL-6 cells [4]; SUDHL6 cells", "result": "partially reversed"}, {"measurement": "effect of co-treatment on IKE-induced CHAC1 upregulation", "setting": "SUDHL-6 cells [4]; [15]", "result": "did not inhibit CHAC1 upregulation"}, {"measurement": "effect of co-treatment on IKE-induced PTGS2 upregulation", "setting": "SUDHL-6 cells [4]; [15]", "result": "inhibited PTGS2 upregulation"}, {"measurement": "MAG lipids", "setting": "SUDHL6 cells [1]; [16]", "result": "decreased"}, {"measurement": "TAG lipids", "setting": "SUDHL6 cells [1]; [16]", "result": "significantly increased"}, {"measurement": "effect of fer-1 co-treatment on cell death induced by IKE and IKE PEG-PLGA NPs", "setting": "SUDHL6 cells [6]", "result": "rescued cell death"}]}, {"smiles": "CC(C)Oc1ccc(C(=O)Cn2ccnc2)cc1-n1c(CN2CCN(C(=O)COc3ccc(Cl)cc3)CC2)nc2ccccc2c1=O", "note": "[IKE, imidazole ketone erastin]", "values": [{"measurement": "IC50", "setting": "LY8", "result": "< 100", "unit": "nM"}, {"measurement": "IC50", "setting": "HBL1", "result": "100 to 10000", "unit": "nM"}, {"measurement": "IC50", "setting": "RIVA", "result": "100 to 10000", "unit": "nM"}, {"measurement": "IC50", "setting": "U937", "result": "> 10000", "unit": "nM"}, {"measurement": "IC50", "setting": "LY7", "result": "> 10000", "unit": "nM"}, {"measurement": "cellular level of reduced glutathione (GSH)", "setting": "SUDHL-6 cells [3]; SUDHL6 cells, different concentrations of IKE, 24 hours", "result": "dose-dependent GSH depletion"}, {"measurement": "IC50", "setting": "SUDHL-6 cells [3]; read-out: IC50 of GSH depletion, SUDHL-6 cells, 24 h", "result": 34, "unit": "nM"}, {"measurement": "lipid ROS (C11-BODIPY)", "setting": "SUDHL-6 cells [5]; different concentrations of IKE", "result": "dose-dependent increase"}, {"measurement": "dihydropyridine-MDA-lysine-adduct abundance", "setting": "SUDHL-6 cells [7]", "result": "increased"}, {"measurement": "GPX4, CBS and ACSL4 expression", "setting": "SUDHL-6 cells [4]; IKE treatment, data not shown", "result": "not upregulated"}, {"measurement": "SLC7A11, PTGS2 and CHAC1 expression", "setting": "SUDHL-6 cells [4]; SUDHL-6 cells, 500 nM IKE", "result": "significantly increased"}, {"measurement": "comparison of dosage routes by IKE concentration over eight hours", "setting": "[8]", "result": "IP to be the most effective and practical means"}, {"measurement": "T1/2 plasma", "setting": "[9]; [17]", "result": 1.83, "unit": "h"}, {"measurement": "T1/2 tumor", "setting": "[9]; [17]", "result": 3.50, "unit": "h"}, {"measurement": "highest plasma concentration", "setting": "[9]; [18]", "result": 5.2, "unit": "µg/mL"}, {"measurement": "highest tumor accumulation", "setting": "[9]; [18]", "result": 2.5, "unit": "µg/mL"}, {"measurement": "time of highest plasma concentration", "setting": "[9]; [18]", "result": 1.35, "unit": "h"}, {"measurement": "time of highest tumor accumulation", "setting": "[9]; [18]", "result": 3.30, "unit": "h"}, {"measurement": "GSH depletion in tumor tissue", "setting": "[10]", "result": "over 50%"}, {"measurement": "CHAC1 mRNA upregulation in tumor", "setting": "[11]", "result": 2, "unit": "fold"}, {"measurement": "PTGS2 mRNA upregulation in tumor", "setting": "[11]", "result": "3–5 fold"}, {"measurement": "SLC7A11 mRNA upregulation in tumor", "setting": "[11]", "result": "3–5 fold"}, {"measurement": "mouse weight", "setting": "[12]; IKE 23 mg/kg daily", "result": "weight loss"}, {"measurement": "mouse weight", "setting": "[12]; IKE 40 mg/kg daily", "result": "weight loss"}, {"measurement": "increase in 8-OH-dG intensity in tumor sections", "setting": "[13]; IKE 23 mg/kg daily for 14 days", "result": 1.8, "unit": "fold"}, {"measurement": "increase in COX-2 intensity in tumor sections", "setting": "[13]; IKE 23 mg/kg daily for 14 days", "result": 2.0, "unit": "fold"}, {"measurement": "increase in MDA intensity in tumor sections", "setting": "[13]; IKE 23 mg/kg daily for 14 days", "result": 1.8, "unit": "fold"}, {"measurement": "increase in 8-OH-dG intensity in tumor sections", "setting": "[13]; IKE 40 mg/kg daily for 14 days", "result": 2.2, "unit": "fold"}, {"measurement": "increase in COX-2 intensity in tumor sections", "setting": "[13]; IKE 40 mg/kg daily for 14 days", "result": 2.8, "unit": "fold"}, {"measurement": "increase in MDA intensity in tumor sections", "setting": "[13]; IKE 40 mg/kg daily for 14 days", "result": 2.0, "unit": "fold"}, {"measurement": "MDA increase (TBARS, MDA-TBA adduct fluorescence)", "setting": "[14]; IKE 23 mg/kg", "result": 1.4, "unit": "fold"}, {"measurement": "MDA increase (TBARS, MDA-TBA adduct fluorescence)", "setting": "[14]; IKE 40 mg/kg", "result": 1.8, "unit": "fold"}, {"measurement": "caspase-3 activity in tumor tissues", "setting": "caspase-3", "result": "no increase in caspase-3 activity"}, {"measurement": "potency improvement comparing to erastin", "setting": "cell lines; in some cell lines", "result": "> 100", "unit": "x"}, {"measurement": "potency", "setting": "cell lines", "result": "nanomolar"}, {"measurement": "metabolic stability", "setting": "[2]", "result": "high"}]}, {"smiles": "O=C(O)c1cc(/N=N/c2ccc(S(=O)(=O)Nc3ccccn3)cc2)ccc1O", "note": "[sulfasalazine]", "values": [{"measurement": "IC50 for GSH depletion", "setting": "GSH", "result": "millimolar range"}]}]}
